e = 2'-O-(2-methoxyethyl) (MOE); d = 2'-deoxy (DNA)
Assays:
[1] = Liver function, plasma ALT and AST (Example 6); format: in vivo, mice; details: 50 mg/kg s.c. twice per week
From the text: (§1) The normal chow-fed mice were divided into three treatment groups. The cholesterol-enriched chow-fed mice were divided into three treatment groups. […] One chow-fed group and one cholesterol-enriched chow-fed group received subcutaneous injections of saline twice weekly for 6 weeks. The saline-injected groups served as the control groups to which the corresponding oligonucleotide-treated groups were compared.
Plasma concentrations of ALT (alanine transaminase) and AST (aspartate transaminase) at weeks 0, 3 and 6 were measured and the results are presented in Tables 18 and 19 expressed in IU/L.

[2] = tested on: CETP protein; assay: Plasma CETP protein by ELISA in huCETP transgenic mice (Example 5); format: in vivo, human; details: normal chow, 50 mg/kg i.p. twice per week for 6 weeks, compared to PBS control
Description: The mice were divided into five treatment groups. The first four groups received intraperitoneal injections of ISIS 349511, ISIS 349512, ISIS 349515, or ISIS 349517 at a dose of 50 mg/kg twice per week for 6 weeks. The fifth group received intraperitoneal injections of saline twice weekly for 6 weeks.
Plasma levels of CETP protein were measured by ELISA (Alpco, N.H.). […] The results are expressed as percentage inhibition compared to the PBS control.

[3] = tested on: human CETP mRNA; assay: Liver CETP mRNA in huCETP transgenic mice, normal or cholesterol-enriched chow (Example 6); format: in vivo; details: 50 mg/kg s.c. twice per week for 6 weeks, relative to PBS control
Description: Male huCETP transgenic mice were maintained on a 12-hour light/dark cycle. One group of mice was fed ad libitum normal Purina mouse chow and a second group was fed 0.5% cholesterol-enriched chow (Harlan Teklad TD.97234, Harlan Laboratories, Indianapolis, Ind.). Animals were acclimated for at least 7 days in the research facility before initiation of the experiment. Antisense oligonucleotides (ASOs) were prepared in buffered saline (PBS) and sterilized by filtering through a 0.2 micron filter. Oligonucleotides were dissolved in 0.9% PBS for injection.
as §1
Twenty four hours after the final dose, the animals were sacrificed and liver tissue was isolated. Liver RNA was isolated for real-time PCR analysis of CETP. The primer probe set hCETP was used to measure CETP levels. As presented in Table 16, treatment with antisense oligonucleotides reduced CETP mRNA expression. The RNA expression levels were normalized to murine Cyclophilin. The results are expressed as percent inhibition of CETP mRNA, relative to the PBS control. There was no difference in inhibition of CETP mRNA levels in normal chow-fed and cholesterol-enriched chow fed mice.

[4] = Organ weights (Example 6); format: in vivo, mice; details: 50 mg/kg s.c. twice per week for 6 weeks, end of study
From the text: as §1

[5] = tested on: ApoA1; assay: Liver ApoA1 mRNA expression (Example 9); format: in vivo, mice; details: s.c. 6 weeks; for Percent inhibition of liver mRNA expression, ApoA1: percentage increase or decrease compared to PBS control
Description: (§2) Another group received subcutaneous injections of control oligonucleotide ISIS 141923 at a dose of 50 mg/kg/week for 6 weeks. One group of mice received subcutaneous injections of PBS for 6 weeks. The PBS-injected group served as the control group to which treatment groups were compared.
Liver RNA was isolated for real-time PCR analysis of ABCA1, ApoAI, and SR-B1. ATP-binding cassette transporter ABCA1 (member 1 of human transporter sub-family ABCA), also known as the cholesterol efflux regulatory protein (CERP) is a protein which in humans is encoded by the ABCA1 gene (Luciani, M. F. et al., Genomics. 1994. 21: 150-9). This transporter is a major regulator of cellular cholesterol and phospholipid homeostasis. Apolipoprotein A-I is a protein that in humans is encoded by the APOA1 gene (Breslow, J. L. et al., Proc. Natl. Acad. Sci. USA 1982. 79: 6861-5). Apolipoprotein A-I is the major protein component of HDL in plasma. The protein promotes cholesterol efflux from tissues to the liver for excretion. Scavenger receptor class B, type I (SR-BI) is an integral membrane protein found in numerous cell types/tissues, including the liver and adrenal (Acton, S. L. et al., J. Biol. Chem. 1994. 269: 21003-21009). It is best known for its role in facilitating the uptake of cholesteryl esters from high-density lipoproteins in the liver. Therefore, all three genes have a role in HDL regulation.
The primer probe set RTS1204 (forward sequence […], designated herein as SEQ ID NO: 122, reverse sequence […], designated herein as SEQ ID NO: 123, probe sequence AGGCCCAGACCTGTAAAGGCGAAGX, with X a fluorophore, designated herein as SEQ ID NO: 124) was used to measure abca1 levels. The primer probe set RTS14737 (forward sequence […], designated herein as SEQ ID NO: 125, reverse sequence […], designated herein as SEQ ID NO: 126, probe sequence CTGCAGGAACGGCTGGGCCCX, with X a fluorophore, designated herein as SEQ ID NO: 127) was used to measure apoA1 levels. The primer probe set mSRB-1 (forward sequence […], designated herein as SEQ ID NO: 128, reverse sequence ATGCGACTTGTCAGGCTGG, designated herein as SEQ ID NO: 129, probe sequence CGTGGAGAACCGCAGCCTCCATTX, with X a fluorophore, designated herein as SEQ ID NO: 130) was used to measure sr-b1 levels. The results are presented in Table 44 as percentage increase or decrease in the respective expression levels compared to the PBS control. Both primer probe sets produced similar results. The RNA expression levels were normalized to murine Cyclophilin. Treatment with ISIS 349517 caused an increase in ApoA1 and SR-B1 levels.

[6] = tested on: CETP protein; assay: Plasma CETP protein by ELISA, dose response (Example 9); format: in vivo, human; details: huCETP transgenic mice, Western diet, s.c. 6 weeks
Description: as §2
Plasma CETP protein levels were measured by ELISA (Alpco). The results are expressed as percent inhibition of CETP protein, relative to the PBS control.

Substance: ISIS 349511: 5-10-5 MOE gapmer CCCGACCTCCTTGGAGACTT (sugars from the 5' end e5 d10 e5, backbone and methylation of C not given here)
- Alanine transaminase levels ([1]; Cholesterol chow, Week 0): 28 IU/L
- Aspartate transaminase levels ([1]; Cholesterol chow, Week 0): 49 IU/L
- Alanine transaminase levels ([1]; Cholesterol chow, Week 3): 28 IU/L
- Aspartate transaminase levels ([1]; Cholesterol chow, Week 3): 44 IU/L
- Alanine transaminase levels ([1]; Cholesterol chow, Week 6): 66 IU/L
- Aspartate transaminase levels ([1]; Cholesterol chow, Week 6): 123 IU/L
- Alanine transaminase levels ([1]; Normal chow, Week 0): 16 IU/L
- Aspartate transaminase levels ([1]; Normal chow, Week 0): 89 IU/L
- Alanine transaminase levels ([1]; Normal chow, Week 3): 22 IU/L
- Aspartate transaminase levels ([1]; Normal chow, Week 3): 47 IU/L
- Alanine transaminase levels ([1]; Normal chow, Week 6): 22 IU/L
- Aspartate transaminase levels ([1]; Normal chow, Week 6): 81 IU/L
- Percent inhibition of plasma CETP protein levels [2]: 75%
- Percent inhibition of liver CETP mRNA expression ([3]; Cholesterol chow): 88%
- Percent inhibition of liver CETP mRNA expression ([3]; Normal chow): 89%
- Kidney weight ([4]; Cholesterol chow): 305 mg
- Liver weight ([4]; Cholesterol chow): 1.4 g
- Spleen weight ([4]; Cholesterol chow): 80 mg
- Kidney weight ([4]; Normal chow): 248 mg
- Liver weight ([4]; Normal chow): 1.0 g
- Spleen weight ([4]; Normal chow): 74 mg

Substance: ISIS 349517: 5-10-5 MOE gapmer CAGCACTTTAATGCCAGTGG (sugars from the 5' end e5 d10 e5, backbone and methylation of C not given here)
- Alanine transaminase levels ([1]; Cholesterol chow, Week 0): 19 IU/L
- Aspartate transaminase levels ([1]; Cholesterol chow, Week 0): 54 IU/L
- Alanine transaminase levels ([1]; Cholesterol chow, Week 3): 56 IU/L
- Aspartate transaminase levels ([1]; Cholesterol chow, Week 3): 72 IU/L
- Alanine transaminase levels ([1]; Cholesterol chow, Week 6): 76 IU/L
- Aspartate transaminase levels ([1]; Cholesterol chow, Week 6): 113 IU/L
- Alanine transaminase levels ([1]; Normal chow, Week 0): 17 IU/L
- Aspartate transaminase levels ([1]; Normal chow, Week 0): 75 IU/L
- Alanine transaminase levels ([1]; Normal chow, Week 3): 24 IU/L
- Aspartate transaminase levels ([1]; Normal chow, Week 3): 61 IU/L
- Alanine transaminase levels ([1]; Normal chow, Week 6): 158 IU/L
- Aspartate transaminase levels ([1]; Normal chow, Week 6): 196 IU/L
- ApoA1 levels (liver mRNA) ([5]; huCETP transgenic mice, Western diet): increase
- Percent inhibition of liver mRNA expression, ApoA1 ([5]; Dose 1.5 mg/kg/wk): −34%
- Percent inhibition of liver mRNA expression, ApoA1 ([5]; Dose 5 mg/kg/wk): −13%
- Percent inhibition of liver mRNA expression, ApoA1 ([5]; Dose 15 mg/kg/wk): +52%
- Percent inhibition of liver mRNA expression, ApoA1 ([5]; Dose 50 mg/kg/wk): +136%
- Percent inhibition of plasma CETP protein levels [2]: 86%
- Percent inhibition of liver CETP mRNA expression ([3]; Cholesterol chow): 98%
- Percent inhibition of liver CETP mRNA expression ([3]; Normal chow): 95%
- Kidney weight ([4]; Cholesterol chow): 317 mg
- Liver weight ([4]; Cholesterol chow): 1.8 g
- Spleen weight ([4]; Cholesterol chow): 93 mg
- Kidney weight ([4]; Normal chow): 279 mg
- Liver weight ([4]; Normal chow): 1.6 g
- Spleen weight ([4]; Normal chow): 113 mg
- Percent inhibition of plasma CETP protein levels ([6]; Dose 1.5 mg/kg/wk): 58%
- Percent inhibition of plasma CETP protein levels ([6]; Dose 5 mg/kg/wk): 74%
- Percent inhibition of plasma CETP protein levels ([6]; Dose 15 mg/kg/wk): 81%
- Percent inhibition of plasma CETP protein levels ([6]; Dose 50 mg/kg/wk): 80%

Substance: ISIS 141923: CCTTCCCTGAAGGTTCCTCC, 5-10-5 MOE gapmer, a control oligonucleotide which has no known murine target (sugars from the 5' end e5 d10 e5, backbone and methylation of C not given here) [reference compound]
- Percent inhibition of liver mRNA expression, ApoA1 ([5]; Dose 50 mg/kg/wk): −50%
- Percent inhibition of plasma CETP protein levels ([6]; Dose 50 mg/kg/wk): 7%

From US20130053430A1, “MODULATION OF CETP EXPRESSION” (Isis Pharmaceuticals, Inc., priority 2010, published 2013)
